Experimental data: patent US11351148B1, “Pharmaceutical composition Mix A to treat health conditions associated with elevated glucose levels” (priority 2021, dated 2022)

System: skeletal muscle cells
Experiment: In vitro uptake of 2-DG (glucose derivative) in skeletal muscle cells
Assay type: cell-based, rat
Method: The assay was performed according to manufactures' protocol. Briefly, […] L6 cell line cells were seeded and grown to confluency in white 96 well plates in culture medium containing 10% FBS (serum). After treating with various nutrients with or without insulin cells were starved by incubating in DMEM without glucose and serum. Samples were processed using Glucose Uptake Assay kit according to manufacturer's protocol that uses the glucose analog 2-deoxyglucose (2-DG) to detect and quantify glycose uptake in cells. Luminescence was measured by a Tecan luminometer. 4 repetitions were performed for each treatment when testing individual components and 3 repetitions when testing mixes.

Row | Molecule | stimulating effect on glucose uptake by individual compounds compared to controls (FIG. 6, 0.0001 ug/ml, 24 h at 37° C.) | glucose uptake by the cells, insulin alone (FIG. 8, insulin alone at different concentrations)
1 | [Cr] [chromium] | highest stimulating effect | –
2 | Insulin: human insulin obtained from Sigma | – | concentration dependent increase
